We go through five compounds from paper PMC4764579, “Structural insights into the mechanism of activation of the TRPV1 channel by a membrane-bound tarantula toxin” (eLife, 2016).

Positions of bridges follow the written chain, without caps; N, C: chain ends. Residues, ends and D or L forms follow the SMILES beside them.

This data set can be described thus: Membrane partitioning of toxins into lipid vesicles measured using Trp fluorescence. Format: physicochemical. Particulars: Trp fluorescence, excitation 280 nm, F/F0 at 320 nm; LUVs 1:1 POPC:POPG extruded through 100 nm; toxin 2 or 5 µM in 10 mM HEPES, 1 mM EDTA, pH 7.0; available lipid 60% of total; fit of partition function; ± SEM, n = 3 or 4; SEM. From the text: Motivated by the amphipathic character evident in the structure of DkTx, together with the placement of the toxin at the protein-lipid interface when bound to TRPV1, we investigated the interaction of DkTx and each of its two lobes with lipid membranes. For these experiments, we took advantage of the presence of a single conserved and solvent accessible Trp residue in loop 2 of both K1 and K2 (Figure 1C,D; W11 and W53), and used Trp fluorescence to monitor the partitioning of the toxin from the aqueous solution into the membrane environment ([Gupta et al., 2015]; [Ladokhin et al., 2000]; [Milescu et al., 2007]). When aqueous solutions of DkTx were excited at a wavelength of 280 nm, emission spectra with maxima at 353 nm were obtained (Figure 5A, left), as expected for Trp residues residing in such an environment. […] To quantify the extent of partitioning as a function of lipid concentration, we measured the relative fluorescence intensity in a blue-shifted region of the spectra (e.g. 320 nm) as a function of lipid concentration, and fit a partition function to the data to obtain a mole-fraction partition coefficient (Kx) of (2.3 ± 0.7) × 10^6, indicating an energetically favorable interaction of DkTx with lipid membranes (Figure 5A, right). This strong interaction of DkTx with membranes would facilitate binding of the toxin to the channel by increasing the local concentration of the toxin near the channel and by a reduction in the dimensionality of diffusion within the membrane ([Axelrod and Wang, 1994]).
Figure 5. Interaction of DkTx and toxin constructs with lipid membranes measured using Trp fluorescence. (A–E, left panel) Trp emission spectra of DkTx (A), K1 without linker (B), K2 (C), bivalent K1 (K1K1) (D) and bivalent K2 (K2K2) (E) in the absence (black) and presence (blue, 1.6 mM for DkTx, 2 mM for K1-ΔL and K1K1, and 3 mM for K2 and K2K2) of lipid vesicles (1:1 mix of POPC:POPG). (A–E, right panel) Relative fluorescence intensity at 320 nm (F/F0) as a function of available lipid concentrations (60% of total lipid concentration). Smooth curves correspond to partition functions with Kx = (2.3 ± 0.7) × 10^6 and F/F0^max = 2.65 ± 0.08 for DkTx, Kx = (3.9 ± 1.1) × 10^5 and F/F0^max = 2.63 ± 0.07 for K1-ΔL, Kx = (2.0 ± 0.3) × 10^4 and F/F0^max = 3.71 ± 0.40 for K2, Kx = (2.9 ± 0.3) × 10^6 and F/F0^max = 2.47 ± 0.03 for K1K1 and Kx = (8.1 ± 2) × 10^5 and F/F0^max = 2.77 ± 0.55 for K2K2. Error bars correspond to SEM (n = 3 or 4). Partition functions for K1-ΔL and K2 are shown as dotted lines for comparison in D and E, respectively. (F) Comparisons of mole-fraction partition coefficient (Kx) of toxins. 7G-DkTx denotes a construct of DkTx whose linker (PYVPVTT) is replaced with 7 Gly residues. Error bars correspond to SEM (n = 3 or 4). DOI: http://dx.doi.org/10.7554/eLife.11273.020 Figure 5—figure supplement 1. Interaction of K1-K2 chimeras with lipid membranes measured using Trp fluorescence. (A–E, left panel) Trp emission spectra of K1(D1N) (A), K1(K2L2) (B), K1(K2L3) (C), K1(K2L4) (D) and K1(K2CT) (E) in the absence (black) and presence (blue, 2 mM) of lipid vesicles (1:1 mix of POPC:POPG). (A–D, right panel) Relative fluorescence intensity at 320 nm (F/F0) as a function of available lipid concentrations (60% of total lipid concentration). Smooth curves correspond to partition functions with Kx = (1.76 ± 0.06) × 10^6 and F/F0^max = 3.79 ± 0.02 for K1(D1N), Kx = (4.77 ± 1.39) × 10^5 and F/F0^max = 1.31 ± 0.02 for K1(K2L2), Kx = (1.02 ± 0.04) × 10^4 and F/F0^max = 3.69 ± 0.02 for K1(K2L3), and Kx = (0.90 ± 0.04) × 10^6 and F/F0^max = 2.59 ± 0.02 for K1(K2L4). Error bar corresponds to SEM (n = 3 or 4). Smooth curve of K1-ΔL was shown as a dotted line for comparison throughout the figures. (F) Comparisons of mole-fraction partition coefficient (Kx) of toxins. Error bars correspond to SEM (n = 3 or 4). DOI: http://dx.doi.org/10.7554/eLife.11273.021 [drawing 10] […]
Turning to `CC[C@H](C)[C@@H]1NC(=O)[C@H](Cc2ccccc2)NC(=O)[C@H](CCC(=O)O)NC(=O)[C@H](CCSC)NC(=O)[C@@H]2CCCN2C(=O)[C@@H]2CSSC[C@@H]3NC(=O)[C@H](C(C)C)NC(=O)[C@H](CCC(=O)O)NC(=O)CNC(=O)[C@H](CCC(=O)O)NC(=O)[C@H](CCCCN)NC(=O)[C@H](C)NC(=O)[C@@H](NC(=O)[C@@H](N)CC(N)=O)CSSC[C@H](NC(=O)[C@H](CSSC[C@@H](C(=O)N[C@@H](CCCCN)C(=O)N[C@@H](CCCCN)C(=O)N[C@@H](Cc4ccc(O)cc4)C(=O)N[C@@H](CCCCN)C(=O)O)NC(=O)[C@H](Cc4c[nH]cn4)NC(=O)[C@@H]4CCCN4C1=O)NC(=O)[C@H](CCCCN)NC(=O)[C@H](CCCCN)NC(=O)CNC(=O)[C@H](Cc1c[nH]c4ccccc14)NC(=O)[C@H](CO)NC3=O)C(=O)N[C@@H](CC(=O)O)C(=O)N[C@@H](CC(C)C)C(=O)N[C@@H](CC(=O)O)C(=O)N[C@@H](CC(N)=O)C(=O)N[C@@H](Cc1ccccc1)C(=O)N[C@@H](Cc1ccc(O)cc1)C(=O)N2` [K1(D1N)] (H-NCAKEGEVCSWGKKCCDLDNFYCPMEFIPHCKKYK-OH; disulfide 2-16, 9-23, 15-31), the “mole-fraction partition coefficient (Kx)” value is reported as “(1.76 ± 0.06) × 10^6”.
Turning to `CC[C@H](C)[C@@H]1NC(=O)[C@H](Cc2ccccc2)NC(=O)[C@H](CCC(=O)O)NC(=O)[C@H](CCSC)NC(=O)[C@@H]2CCCN2C(=O)[C@@H]2CSSC[C@@H]3NC(=O)[C@H](C(C)C)NC(=O)[C@H](CCC(=O)O)NC(=O)CNC(=O)[C@H](CCC(=O)O)NC(=O)[C@H](CCCCN)NC(=O)[C@H](C)NC(=O)[C@@H](NC(=O)[C@@H](N)CC(=O)O)CSSC[C@H](NC(=O)[C@H](CSSC[C@@H](C(=O)N[C@@H](CCCCN)C(=O)N[C@@H](CCCCN)C(=O)N[C@@H](Cc4ccc(O)cc4)C(=O)N[C@@H](CCCCN)C(=O)O)NC(=O)[C@H](Cc4c[nH]cn4)NC(=O)[C@@H]4CCCN4C1=O)NC(=O)[C@H](CCCCN)NC(=O)[C@H](CO)NC(=O)CNC(=O)[C@H](Cc1c[nH]c4ccccc14)NC(=O)CNC3=O)C(=O)N[C@@H](CC(=O)O)C(=O)N[C@@H](CC(C)C)C(=O)N[C@@H](CC(=O)O)C(=O)N[C@@H](CC(N)=O)C(=O)N[C@@H](Cc1ccccc1)C(=O)N[C@@H](Cc1ccc(O)cc1)C(=O)N2` [K1(K2L2)] (H-DCAKEGEVCGWGSKCCDLDNFYCPMEFIPHCKKYK-OH; disulfide 2-16, 9-23, 15-31), the “mole-fraction partition coefficient (Kx)” value is “(4.77 ± 1.39) × 10^5”.
As for `CC[C@H](C)[C@@H]1NC(=O)[C@H](Cc2ccccc2)NC(=O)[C@H](CCC(=O)O)NC(=O)[C@H](CCSC)NC(=O)[C@@H]2CCCN2C(=O)[C@@H]2CSSC[C@@H]3NC(=O)[C@H](C(C)C)NC(=O)[C@H](CCC(=O)O)NC(=O)CNC(=O)[C@H](CCC(=O)O)NC(=O)[C@H](CCCCN)NC(=O)[C@H](C)NC(=O)[C@@H](NC(=O)[C@@H](N)CC(=O)O)CSSC[C@H](NC(=O)[C@H](CSSC[C@@H](C(=O)N[C@@H](CCCCN)C(=O)N[C@@H](CCCCN)C(=O)N[C@@H](Cc4ccc(O)cc4)C(=O)N[C@@H](CCCCN)C(=O)O)NC(=O)[C@H](Cc4c[nH]cn4)NC(=O)[C@@H]4CCCN4C1=O)NC(=O)[C@H](CCCCN)NC(=O)[C@H](CCCCN)NC(=O)CNC(=O)[C@H](Cc1c[nH]c4ccccc14)NC(=O)[C@H](CO)NC3=O)C(=O)N[C@@H](Cc1c[nH]cn1)C(=O)NCC(=O)N[C@@H](CC(C)C)C(=O)N[C@@H](CC(=O)O)C(=O)N2` [K1(K2L3)] (H-DCAKEGEVCSWGKKCCHGLDCPMEFIPHCKKYK-OH; disulfide 2-16, 9-21, 15-29), the entry is “(1.02 ± 0.04) × 10^4”; as for `CC[C@H](C)[C@@H]1NC(=O)[C@H](Cc2ccccc2)NC(=O)[C@H](C)NC(=O)[C@H](CC(C)C)NC(=O)[C@@H]2CCCN2C(=O)[C@@H]2CSSC[C@@H]3NC(=O)[C@H](C(C)C)NC(=O)[C@H](CCC(=O)O)NC(=O)CNC(=O)[C@H](CCC(=O)O)NC(=O)[C@H](CCCCN)NC(=O)[C@H](C)NC(=O)[C@@H](NC(=O)[C@@H](N)CC(=O)O)CSSC[C@H](NC(=O)[C@H](CSSC[C@@H](C(=O)N[C@@H](CCCCN)C(=O)N[C@@H](CCCCN)C(=O)N[C@@H](Cc4ccc(O)cc4)C(=O)N[C@@H](CCCCN)C(=O)O)NC(=O)[C@H](Cc4ccc(O)cc4)NC(=O)[C@@H]4CCCN4C1=O)NC(=O)[C@H](CCCCN)NC(=O)[C@H](CCCCN)NC(=O)CNC(=O)[C@H](Cc1c[nH]c4ccccc14)NC(=O)[C@H](CO)NC3=O)C(=O)N[C@@H](CC(=O)O)C(=O)N[C@@H](CC(C)C)C(=O)N[C@@H](CC(=O)O)C(=O)N[C@@H](CC(N)=O)C(=O)N[C@@H](Cc1ccccc1)C(=O)N[C@@H](Cc1ccc(O)cc1)C(=O)N2` [K1(K2L4)] (H-DCAKEGEVCSWGKKCCDLDNFYCPLAFIPYCKKYK-OH; disulfide 2-16, 9-23, 15-31), “(0.90 ± 0.04) × 10^6”.
As for `CC[C@H](C)[C@@H]1NC(=O)[C@H](Cc2ccccc2)NC(=O)[C@H](CCC(=O)O)NC(=O)[C@H](CCSC)NC(=O)[C@@H]2CCCN2C(=O)[C@@H]2CSSC[C@@H]3NC(=O)[C@H](C(C)C)NC(=O)[C@H](CCC(=O)O)NC(=O)CNC(=O)[C@H](CCC(=O)O)NC(=O)[C@H](CCCCN)NC(=O)[C@H](C)NC(=O)[C@@H](NC(=O)[C@@H](N)CC(=O)O)CSSC[C@H](NC(=O)[C@H](CSSC[C@@H](C(=O)N[C@@H](CCCCN)C(=O)N[C@@H](CCCCN)C(=O)N[C@@H](Cc4ccc(O)cc4)C(=O)N[C@@H](CCCCN)C(=O)O)NC(=O)[C@H](Cc4c[nH]cn4)NC(=O)[C@@H]4CCCN4C1=O)NC(=O)[C@H](CCCCN)NC(=O)[C@H](CCCCN)NC(=O)CNC(=O)[C@H](Cc1c[nH]c4ccccc14)NC(=O)[C@H](CO)NC3=O)C(=O)N[C@@H](CC(=O)O)C(=O)N[C@@H](CC(C)C)C(=O)N[C@@H](CC(=O)O)C(=O)N[C@@H](CC(N)=O)C(=O)N[C@@H](Cc1ccccc1)C(=O)N[C@@H](Cc1ccc(O)cc1)C(=O)N2` [K1-ΔL] (H-DCAKEGEVCSWGKKCCDLDNFYCPMEFIPHCKKYK-OH; disulfide 2-16, 9-23, 15-31), the entry is “(3.9 ± 1.1) × 10^5”.
